This note sets out measurements from patent US9156788B2, “TRPV3 modulators” (AbbVie Inc., priority 2010, dated 2015).

In general, IC50 refers to the concentration that inhibits the measured activity by half.

This experiment deals with T1, human TRPV3 (Homo sapiens, UniProt Q8NET8).
T1 construct: expressed in transfected cells
T1 sequence (Q8NET8 1-790): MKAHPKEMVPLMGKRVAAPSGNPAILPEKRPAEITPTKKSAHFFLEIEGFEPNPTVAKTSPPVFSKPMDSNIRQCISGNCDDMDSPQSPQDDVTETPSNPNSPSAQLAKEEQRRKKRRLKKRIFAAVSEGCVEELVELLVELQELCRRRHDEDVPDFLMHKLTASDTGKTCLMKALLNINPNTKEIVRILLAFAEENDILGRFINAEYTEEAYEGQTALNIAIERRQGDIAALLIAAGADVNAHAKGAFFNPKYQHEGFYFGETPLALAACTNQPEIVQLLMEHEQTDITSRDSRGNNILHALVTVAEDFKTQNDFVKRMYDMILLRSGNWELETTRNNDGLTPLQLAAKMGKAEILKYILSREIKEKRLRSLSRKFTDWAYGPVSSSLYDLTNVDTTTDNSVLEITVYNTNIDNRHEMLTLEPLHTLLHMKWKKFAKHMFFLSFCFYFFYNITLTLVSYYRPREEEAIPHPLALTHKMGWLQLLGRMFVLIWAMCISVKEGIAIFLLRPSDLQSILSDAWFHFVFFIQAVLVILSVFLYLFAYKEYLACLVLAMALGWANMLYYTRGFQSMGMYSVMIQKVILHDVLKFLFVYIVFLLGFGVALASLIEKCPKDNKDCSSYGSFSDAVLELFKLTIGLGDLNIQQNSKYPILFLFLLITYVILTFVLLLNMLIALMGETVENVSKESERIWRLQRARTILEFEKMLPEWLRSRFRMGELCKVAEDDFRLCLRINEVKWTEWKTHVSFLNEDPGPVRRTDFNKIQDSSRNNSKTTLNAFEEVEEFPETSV
Nature of the experiment: Calcium flux assay (FLIPR TETRA), inhibition of 2-APB response. In kind it is cell-based. As to conditions: recombinant HEK293 cells stably expressing human TRPV3; 2-APB at its EC50. How it is done: (i) In Vitro Methods-Calcium Flux Assays:
Experiments were conducted using the FLIPR^TETRA®. On the day prior to the experiment, recombinant HEK293 cells that stably express human and mouse TRPV3 were removed from tissue culture flasks and plated in growth medium at 20,000 cells/well into black-walled clear-bottom 384-well Biocoat™ poly-D-lysine assay plates (BD Biosciences, Bedford, Mass.) using a Multidrop® dispenser (ThermoScientific, Waltham, Mass.). On the day of the experiment, growth medium was removed, and the no-wash FLIPR® Calcium-4 dye (λEX=470-495 nm, λEM=515-575 nm; Molecular Devices, Sunnyvale, Calif.) was added to each well using the Multidrop® dispenser. Cells were incubated for 90-120 minutes in the dark. Compounds were dissolved in DMSO to prepare a 10 mM stock solution. The intensity of the fluorescence was captured and digitally transferred to an interfaced PC. The peak increase in fluorescence over baseline (relative fluorescence units) was calculated and expressed as the percentage of the maximal 2-APB (2-aminoethoxyldiphenyl borate) response (in the absence of compound).
(In general: Calcium flux is commonly read through the fluorescence of an indicator in the cells.)

For `OC(c1ccccn1)C1(c2cc(F)cc(C(F)(F)F)c2)CCC1` (centres unmarked) [Example 14, {1-[3-fluoro-5-(trifluoromethyl)phenyl]cyclobutyl}(pyridin-2-yl)methanol], the IC50 was 5.1 to 20 µM.
In the case of `CS(=O)(=O)c1ccc(C2(C(O)c3ccccn3)CCC2)cc1` (centres unmarked) [Example 16, {1-[4-(methylsulfonyl)phenyl]cyclobutyl}(pyridin-2-yl)methanol], the IC50 was 5.1 to 20 µM.
As for `OC(c1ccccn1)C1(c2ccc(C(F)(F)F)c(F)c2)CCC1` (centres unmarked) [Example 17, {1-[3-fluoro-4-(trifluoromethyl)phenyl]cyclobutyl}(pyridin-2-yl)methanol], the figure is 1.1 to 5 µM; as for `OC(c1ccccn1)C1(c2ccccn2)CCC1` (centres unmarked) [Example 19, pyridin-2-yl(1-pyridin-2-ylcyclobutyl)methanol], 5.1 to 20 µM.
Then `OC(c1ccccn1)C1(c2cccnc2)CCC1` (centres unmarked) [Example 20, pyridin-2-yl(1-pyridin-3-ylcyclobutyl)methanol], with 5.1 to 20 µM.
Take `OC(c1ccccn1)C1(c2ccncc2)CCC1` (centres unmarked) [Example 21, pyridin-2-yl(1-pyridin-4-ylcyclobutyl)methanol]: the IC50 was in the range of 5.1 to 20 µM.
As to `OC(c1ccccn1)C1(c2ccc(-c3ccccc3)cc2)CCC1` (centres unmarked) [Example 22, [1-(1,1′-biphenyl-4-yl)cyclobutyl](pyridin-2-yl)methanol], the concentration for half-maximal inhibition (IC50) fell in the range of 5.1 to 20 µM.
Then `O[C@H](c1ccccn1)C1(c2ccc(C(F)(F)F)cc2F)CCC1` [Example 27, (S)-{1-[2-fluoro-4-(trifluoromethyl)phenyl]cyclobutyl}(pyridin-2-yl)methanol], with 0.501 to 1 µM; and `OC(c1ncccn1)C1(c2ccccc2F)CCC1` (centres unmarked) [Example 32, [1-(2-fluorophenyl)cyclobutyl](pyrimidin-2-yl)methanol], with 5.1 to 20 µM.
Take `OC(c1ncccn1)C1(c2ccc(F)cc2)CCC1` (centres unmarked) [Example 34, [1-(4-fluorophenyl)cyclobutyl](pyrimidin-2-yl)methanol]: the IC50 was 5.1 to 20 µM.
As for `O[C@H](c1ncccn1)C1(c2ccc(C(F)(F)F)cc2)CCC1` [Example 41, (S)-pyrimidin-2-yl{1-[4-(trifluoromethyl)phenyl]cyclobutyl}methanol], the figure is 5.1 to 20 µM; as for `O[C@@H](c1ncccn1)C1(c2ccc(C(F)(F)F)cc2)CCC1` [Example 42, (R)-pyrimidin-2-yl{1-[4-(trifluoromethyl)phenyl]cyclobutyl}methanol], 1.1 to 5 µM; as for `CC(c1cccc(C(F)(F)F)c1)C1(C(O)c2ccccn2)CCC1` (centres unmarked) [Example 54, pyridin-2-yl(1-{1-[3-(trifluoromethyl)phenyl]ethyl}cyclobutyl)methanol], 5.1 to 20 µM.
Take “[1-(4-methylbenzyl)cyclobutyl](pyridin-2-yl)methanol [Example 52]”: the IC50 fell in the range of 1.1 to 5 µM.
